Our source for the IC50 and EC50 values is patent publication US11414384B2, “P300/CBP hat inhibitors” (Constellation Pharmaceuticals, Inc., priority 2018, dated 2022).

One assay addresses full length p300 (Homo sapiens (Human), UniProt Q09472). In words: full length p300 SPA assay. The class given is biochemical. The following applies: average of at least 2 replicate titrations, read-out: FL P300 IC50. The method, then:
Reactions were initiated with 12.5 μL 2 μM biotinylated H3(1-21) peptide (New England Peptide) and run for 1 hr at RT, then quenched with 20 μL stop solution (200 mM Tris pH 8.0, 200 mM EDTA, 2M NaCl, 160 μM anacardic acid). 35 μL of the reaction volume was transferred to a 384-well streptavidin FlashPlate (PerkinElmer) using a Bravo liquid handler (Velocity 11) and incubated for 1.5 hr at RT. Plates were aspirated, washed with 95 μL wash buffer (15 mM Tris pH 8.5, 0.069 μM Brij-35), aspirated, sealed, and scintillation counts read on a Topcount (PerkinElmer). Data were analyzed in Genedata to determine inhibitor IC50 values.
The full length p300 SPA assay was run following the same protocol as p300 HAT SPA assay, but used 6 nM purified full length p300 (purchased from Active Motif) in place of the purified p300-HAT domain.

The target in assay [1] is p300 HAT domain (residues 1287-1666) (Homo sapiens (Human), UniProt Q09472). Description: p300 HAT SPA assay (scintillation proximity assay, acetylation of biotinylated H3(1-21) peptide). The assay is classed as biochemical. The following applies: p300 HAT domain; average of at least 2 replicate titrations; read-out: P300 HAT SPA IC50. The method, boiled down: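 Purified p300 HAT domain reaction transferred to streptavidin plates to capture biotinylated H3(1-21) peptide, incubated 1.5 hr at RT, and read by scintillation proximity. IC50 values derived from concentration-response data.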
p300 HAT domain (residues 1287-1666), sequence (Q09472 1287-1666): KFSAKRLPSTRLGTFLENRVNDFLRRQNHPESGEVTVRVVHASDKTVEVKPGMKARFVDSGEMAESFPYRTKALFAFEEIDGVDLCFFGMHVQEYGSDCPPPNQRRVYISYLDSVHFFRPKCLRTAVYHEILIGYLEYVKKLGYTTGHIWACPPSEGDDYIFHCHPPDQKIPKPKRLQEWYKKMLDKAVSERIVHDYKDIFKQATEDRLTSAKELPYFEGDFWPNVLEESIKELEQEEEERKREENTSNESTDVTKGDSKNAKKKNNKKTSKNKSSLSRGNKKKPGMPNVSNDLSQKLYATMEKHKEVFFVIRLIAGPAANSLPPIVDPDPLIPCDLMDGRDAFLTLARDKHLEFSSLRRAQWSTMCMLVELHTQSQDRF

Assay [2] deals with acetylation of chromatin at H3K18 (catalyzed by p300 and CBP) in HCT-116 cells. Description: H3K18Ac MSD cellular assay. The assay is classed as cell-based. The conditions noted are these: Homo sapiens, HCT-116, 2 h, 2 hr treatment, average of at least 2 replicate titrations. The method, boiled down:
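HCT-116 cells plated overnight in RPMI + 10% FBS, treated with compound for 2 h at 37 °C, then lysed. H3K18ac measured by MSD sandwich immunoassay: total-histone capture antibody, anti-H3K18ac detection, Sulfo-Tag anti-rabbit electrochemiluminescence read.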

SMILES strings stand for the structures. pEC50, pIC50: −log10 of the molar value.

full length p300, sequence (Q09472 whole entry): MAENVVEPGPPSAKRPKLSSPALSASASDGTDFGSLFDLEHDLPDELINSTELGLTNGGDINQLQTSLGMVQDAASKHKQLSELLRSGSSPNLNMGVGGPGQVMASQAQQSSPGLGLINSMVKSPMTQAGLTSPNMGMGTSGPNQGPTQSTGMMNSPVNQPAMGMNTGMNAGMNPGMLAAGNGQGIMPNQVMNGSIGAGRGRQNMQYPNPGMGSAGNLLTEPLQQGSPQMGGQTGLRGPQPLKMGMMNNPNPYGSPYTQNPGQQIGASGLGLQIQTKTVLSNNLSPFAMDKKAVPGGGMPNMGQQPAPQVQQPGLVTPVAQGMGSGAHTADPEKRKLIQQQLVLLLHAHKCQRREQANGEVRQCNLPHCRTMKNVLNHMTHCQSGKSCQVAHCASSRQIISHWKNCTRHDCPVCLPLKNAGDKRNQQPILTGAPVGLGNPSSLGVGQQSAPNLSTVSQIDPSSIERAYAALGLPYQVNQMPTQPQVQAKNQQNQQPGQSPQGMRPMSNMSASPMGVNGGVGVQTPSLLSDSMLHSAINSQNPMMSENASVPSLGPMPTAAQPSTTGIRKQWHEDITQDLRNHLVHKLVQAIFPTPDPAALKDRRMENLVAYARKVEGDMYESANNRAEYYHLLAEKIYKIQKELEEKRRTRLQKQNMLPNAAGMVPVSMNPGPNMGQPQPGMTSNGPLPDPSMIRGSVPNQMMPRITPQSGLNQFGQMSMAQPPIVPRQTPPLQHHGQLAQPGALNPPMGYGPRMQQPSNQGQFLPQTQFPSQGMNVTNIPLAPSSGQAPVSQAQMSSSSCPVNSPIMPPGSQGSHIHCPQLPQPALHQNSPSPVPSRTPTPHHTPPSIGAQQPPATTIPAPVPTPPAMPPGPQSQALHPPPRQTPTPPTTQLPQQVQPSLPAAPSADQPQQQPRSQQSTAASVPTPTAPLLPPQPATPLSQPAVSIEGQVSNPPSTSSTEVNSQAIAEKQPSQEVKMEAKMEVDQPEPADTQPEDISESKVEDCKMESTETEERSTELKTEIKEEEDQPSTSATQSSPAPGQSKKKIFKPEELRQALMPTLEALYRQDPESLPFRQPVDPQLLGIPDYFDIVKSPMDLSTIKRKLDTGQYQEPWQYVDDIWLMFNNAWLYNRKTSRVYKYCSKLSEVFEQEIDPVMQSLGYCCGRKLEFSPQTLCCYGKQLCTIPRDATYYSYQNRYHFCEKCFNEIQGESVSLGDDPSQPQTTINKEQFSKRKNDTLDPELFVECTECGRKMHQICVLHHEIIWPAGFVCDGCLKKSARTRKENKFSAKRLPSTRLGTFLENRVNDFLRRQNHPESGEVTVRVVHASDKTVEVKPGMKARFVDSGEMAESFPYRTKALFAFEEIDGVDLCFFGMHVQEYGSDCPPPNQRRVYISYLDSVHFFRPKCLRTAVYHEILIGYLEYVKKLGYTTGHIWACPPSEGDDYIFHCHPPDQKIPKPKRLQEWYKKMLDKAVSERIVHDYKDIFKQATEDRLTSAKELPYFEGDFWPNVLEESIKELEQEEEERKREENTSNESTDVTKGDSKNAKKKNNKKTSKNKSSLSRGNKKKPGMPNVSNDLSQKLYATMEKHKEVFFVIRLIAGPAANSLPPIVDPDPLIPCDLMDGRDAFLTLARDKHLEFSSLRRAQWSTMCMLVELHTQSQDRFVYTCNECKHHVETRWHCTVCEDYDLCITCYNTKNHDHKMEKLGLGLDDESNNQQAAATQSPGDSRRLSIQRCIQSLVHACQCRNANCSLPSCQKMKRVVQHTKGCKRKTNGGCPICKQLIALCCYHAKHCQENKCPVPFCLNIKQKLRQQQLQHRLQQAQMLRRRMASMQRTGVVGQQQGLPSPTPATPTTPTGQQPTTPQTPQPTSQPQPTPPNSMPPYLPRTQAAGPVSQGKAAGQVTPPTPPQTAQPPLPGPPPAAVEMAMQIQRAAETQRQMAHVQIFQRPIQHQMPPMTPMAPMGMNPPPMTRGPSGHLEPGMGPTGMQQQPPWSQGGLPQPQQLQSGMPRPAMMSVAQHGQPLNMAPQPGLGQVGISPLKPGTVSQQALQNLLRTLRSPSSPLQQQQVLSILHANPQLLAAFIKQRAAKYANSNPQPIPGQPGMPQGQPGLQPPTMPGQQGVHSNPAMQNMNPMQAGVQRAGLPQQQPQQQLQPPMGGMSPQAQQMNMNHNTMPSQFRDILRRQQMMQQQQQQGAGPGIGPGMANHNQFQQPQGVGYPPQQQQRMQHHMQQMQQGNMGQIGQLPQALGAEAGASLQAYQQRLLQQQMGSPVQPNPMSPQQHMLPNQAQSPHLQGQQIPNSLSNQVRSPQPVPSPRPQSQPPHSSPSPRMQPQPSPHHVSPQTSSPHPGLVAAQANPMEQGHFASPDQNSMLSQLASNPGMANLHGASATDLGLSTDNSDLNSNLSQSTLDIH

As for `O=C(c1c[nH]c2ccccc12)C(NCCc1ccc(F)cc1)c1ccccc1` (single isomer, unassigned) [22 Isomer 2], the pIC50 (in general, the negative decadic logarithm of the IC50, by convention in mol/L) on full length p300 is 7.68; in assay [1], 5.63. Further, the pEC50 (as a rule, −log10 of the EC50, conventionally taken in molar units) in assay [2] is 5.77.

With `O=C(c1c[nH]c2ccccc12)C(NCCc1ccccn1)c1ccccc1` (single isomer, unassigned) [9 Isomer 1], the pIC50 on full length p300 was 4.59; in assay [1], < 4.22.

With `N#Cc1ccc(CCNC(C(=O)c2c[nH]c3cc(C(=O)NCCN4CCCC4=O)ccc23)c2ccccc2)cc1` (single isomer, unassigned) [164 Isomer 2], the pIC50 on full length p300 was 8.22; in assay [1], 6.85.

As for `CN(C)CCNC(=O)c1cccc2c(C(=O)C(NCCc3ccc(Cl)cc3Cl)c3ccccc3)c[nH]c12` (single isomer, unassigned) [149 Isomer 1], the figures for the pIC50 (on full length p300; in assay [1]) were 6.65 and 5.23, respectively.

As to `Cn1cc(-c2ccc3c(C(=O)C(NCCc4ccc(C(=O)O)cc4)c4ccccc4)c[nH]c3c2)cn1` (single isomer, unassigned) [138 Isomer 1], the pIC50 on full length p300 was 7.52; in assay [1] it was 6.35.

Take `Cc1nc(C(=O)C(NCCc2ccc(Cl)cc2)c2ccccc2)c2ccccn12` (single isomer, unassigned) [45 Isomer 2]: the pIC50 on full length p300 is 5.87; in assay [1] it was 4.40.

Turning to `O=C(O)CCc1ccc2c(C(=O)C(NCCc3ccc(F)cc3)c3ccccc3)c[nH]c2c1` (single isomer, unassigned) [159 Isomer 2], the pIC50 is 6.56 on full length p300 and 5.23 in assay [1].

Consider `O=C(c1c[nH]c2ccccc12)C(NCCc1ccc(Cl)cc1)c1ccncc1` (racemic) [44 Racemic, (rac)-2-((4-chlorophenethyl)amino)-1-(1H-indol-3-yl)-2-(pyridin-4-yl)ethan-1-one], for which the pIC50 at full length p300 is 6.92; in assay [1], 5.48.

As for `O=C(c1c[nH]c2ccccc12)C(NCCc1ccc(Cl)cc1)c1ccccn1` (racemic) [42 Racemic, (rac)-2-((4-chlorophenethyl)amino)-1-(1H-indol-3-yl)-2-(pyridin-2-yl)ethan-1-one], the pIC50 is 6.71 on full length p300 and 5.04 in assay [1].

For the compound `O=C(c1c[nH]c2ccccc12)C(NCCc1cccnc1)c1ccccc1` (single isomer, unassigned) [10 Isomer 1], the pIC50 is 6.20 on full length p300 and 4.67 in assay [1].

Turning to `COCCNC(=O)c1cccc2c(C(=O)C(NCCc3ccc(Cl)cc3Cl)c3ccccc3)c[nH]c12` (single isomer, unassigned) [150 Isomer 1], the pIC50 on full length p300 was 6.41; in assay [1] it was 5.10.

Take `NS(=O)(=O)c1ccc(CCNC(C(=O)c2c[nH]c3cc(Cl)ccc23)c2ccccc2)cc1` (single isomer, unassigned) [13 Isomer 2]: the results for the pIC50 (at full length p300; in assay [1]) were 6.84 and 5.79, respectively.

As for `O=C(c1c[nH]c2ccccc12)C(NCCc1ccncc1)c1ccccc1` (single isomer, unassigned) [11 Isomer 2], the pIC50 on full length p300 is 6.71; in assay [1], 5.15.

For `COc1ccc(CCNC(C(=O)c2c[nH]c3ccccc23)c2ccccc2)cc1` (single isomer, unassigned) [8 Isomer 2], the values for the pIC50 (on full length p300; in assay [1]) were 7.56 and 6.06, respectively.

Turning to `CNC(=O)Cc1ccc2c(C(=O)C(NCCc3ccc(C#N)cc3)c3ccccc3)c[nH]c2c1` (single isomer, unassigned) [62 Isomer 1], the values for the pIC50 (on full length p300; in assay [1]) were 7.43 and 6.30, respectively.

Turning to `N#Cc1ccc(CCNC(C(=O)c2c[nH]c3cc(C(=O)NCCN4CCCC4=O)ccc23)c2ccccc2)cc1` (single isomer, unassigned) [164 Isomer 1], the pIC50 was 6.72 on full length p300 and 5.44 in assay [1].

Regarding `COc1ccccc1CCNC(C(=O)c1c[nH]c2ccccc12)c1ccccc1` (single isomer, unassigned) [6 Isomer 2], the results for the pIC50 (at full length p300; in assay [1]) were 7.09 and 5.74, respectively.

For `CN(C)C(=O)c1ccc(CCNC(C(=O)c2c[nH]c3ccccc23)c2ccccc2)cc1` (single isomer, unassigned) [135 Isomer 2], the pIC50 is 6.09 at full length p300 and 4.54 in assay [1].

`COc1ccc(CCNC(C(=O)c2c[nH]c3c(CCC(=O)N(C)C)cccc23)c2ccccc2)cc1` (single isomer, unassigned) [29 Isomer 2]: the pIC50 was 6.66 on full length p300 and 5.18 in assay [1].

Regarding `N#Cc1ccc(CCNC(C(=O)c2c[nH]c3cc(C(=O)O)ccc23)c2ccccc2)cc1` (single isomer, unassigned) [155 Isomer 2], the pIC50 on full length p300 is 6.55; in assay [1], 5.39.

As to `O=C(c1n[nH]c2ccccc12)C(NCCc1ccc(Cl)cc1)c1ccccc1` (single isomer, unassigned) [47 Isomer 1], the pIC50 on full length p300 was 5.88; in assay [1], 5.32.

`CN(C)CCNC(=O)c1ccc2c(C(=O)C(NCCc3ccc(Cl)cc3Cl)c3ccccc3)c[nH]c2c1` (single isomer, unassigned) [153 Isomer 2]: the pIC50 at full length p300 is 8.24; in assay [1], 7.10.

As for `NS(=O)(=O)c1ccc(CCNC(C(=O)c2c[nH]c3ccncc23)c2ccccc2)cc1` (racemic) [Example 31, (rac)-4-(2-((2-oxo-1-phenyl-2-(1H-pyrrolo[3,2-c]pyridin-3-yl)ethyl)amino)ethyl) benzenesulfonamide], the pIC50 is 4.97 on full length p300 and 4.47 in assay [1].

`COc1ccc(CCNC(C(=O)c2c[nH]c3c(CCC(=O)N(C)C)cccc23)c2ccccc2)cc1` (single isomer, unassigned) [29 Isomer 1]: the pIC50 at full length p300 is 7.04; in assay [1], 5.66.

As for `NS(=O)(=O)c1ccc(CCNC(C(=O)c2c[nH]c3ncccc23)c2ccccc2)cc1` (single isomer, unassigned) [33 Isomer 2], the values for the pIC50 (at full length p300; in assay [1]) were 6.26 and 5.00, respectively.

As for `CN(C)C(=O)Cc1ccc2c(C(=O)C(NCCc3ccc(C#N)cc3)c3ccccc3)c[nH]c2c1` (single isomer, unassigned) [63 Isomer 2], the values for the pIC50 (at full length p300; in assay [1]) were 7.34 and 5.60, respectively.

With `NS(=O)(=O)c1ccc(CCNC(C(=O)c2c[nH]c3ccc(Cl)cc23)c2ccccc2)cc1` (single isomer, unassigned) [14 Isomer 1], the pIC50 at full length p300 is 5.02; in assay [1], < 4.22.

On to `CNC(=O)Cc1ccc2c(C(=O)C(NCCc3ccc(C#N)cc3)c3ccccc3)c[nH]c2c1` (single isomer, unassigned) [62 Isomer 2], for which the pIC50 at full length p300 was 7.29; in assay [1], 5.48.

As to `NS(=O)(=O)c1ccc(CCNC(C(=O)c2c[nH]c3cccc(Cl)c23)c2ccccc2)cc1` (single isomer, unassigned) [12 Isomer 2], the pIC50 at full length p300 is 5.40; in assay [1], < 4.22.

Turning to `CNC(=O)c1ccc2c(C(=O)C(NCCc3ccc(C#N)cc3)c3ccccc3)c[nH]c2c1` (single isomer, unassigned) [156 Isomer 1], the pIC50 is 7.54 at full length p300 and 6.23 in assay [1].

As for `CN(C)C(=O)c1cccc2c(C(=O)C(NCCc3ccc(Cl)cc3Cl)c3ccccc3)c[nH]c12` (single isomer, unassigned) [148 Isomer 2], the pIC50 at full length p300 was 6.45; in assay [1], 5.09.

For the compound `NS(=O)(=O)c1ccc(CCNC(C(=O)c2c[nH]c3ccc(Cl)cc23)c2ccccc2)cc1` (single isomer, unassigned) [14 Isomer 2], the pIC50 is 5.73 at full length p300 and 4.32 in assay [1].

Regarding `O=C(c1c[nH]c2ccccc12)C(NCCc1ccccn1)c1ccccc1` (single isomer, unassigned) [9 Isomer 2], the figures for the pIC50 (on full length p300; in assay [1]) were 6.14 and 4.48, respectively.

On to `NS(=O)(=O)c1ccc(CCNC(C(=O)c2c[nH]c3cccc(Cl)c23)c2ccccc2)cc1` (single isomer, unassigned) [12 Isomer 1], for which the values for the pIC50 (at full length p300; in assay [1]) were 5.07 and < 4.22, respectively.

For `O=C(c1c[nH]c2ccccc12)C(NCCc1ccncc1)c1ccccc1` (single isomer, unassigned) [11 Isomer 1], the pIC50 was 6.69 at full length p300 and 5.00 in assay [1].

`COc1cccc(CCNC(C(=O)c2c[nH]c3ccccc23)c2ccccc2)c1` (single isomer, unassigned) [7 Isomer 2]: the values for the pIC50 (on full length p300; in assay [1]) were 6.57 and 5.29, respectively.

Turning to `COCCNC(=O)c1ccc2c(C(=O)C(NCCc3ccc(Cl)cc3Cl)c3ccccc3)c[nH]c2c1` (single isomer, unassigned) [154 Isomer 2], the pIC50 on full length p300 was 8.05; in assay [1], 5.79.

With `CN(C)CCNC(=O)c1ccc2c(C(=O)C(NCCc3ccc(Cl)cc3Cl)c3ccccc3)c[nH]c2c1` (single isomer, unassigned) [153 Isomer 1], the values for the pIC50 (at full length p300; in assay [1]) were 8.11 and 6.46, respectively.
